Measurements: US12281308B2, “Inhibition of protein kinases to treat Friedreich ataxia” (University of Massachusetts, priority 2018, dated 2025)

How the values were obtained:
[1] = tested on: mutant FXN gene; experiment: Massively parallel short-read sequencing (RNA-seq) of FXN transcript levels in FRDA neurons; assay type: cell-based, human; conditions: vs DMSO, Illumina platform
[2] = tested on: ACO2 and ISCU; experiment: Immunoblot analysis of mitochondrial Fe-S proteins in FRDA neurons; assay type: cell-based, human; conditions: fasudil 1 μM, KD025 1 μM, ripasudil 0.5 μM
[3] = tested on: ACO2 and ISCU; experiment: Immunoblot analysis of mitochondrial Fe-S proteins in FRDA cardiomyocytes; assay type: cell-based, human; conditions: fasudil 1 μM, KD025 1 μM, ripasudil 0.5 μM
[4] = tested on: FRDA neurons; experiment: Mitochondrial oxygen consumption rate (Agilent Seahorse XF Analyzer) in FRDA neurons; assay type: cell-based, human; conditions: small molecule ROCK1/2 inhibitor
Text: (§1) FIGS. 3A-D. Inhibition of protein kinase FXN-RFs can ameliorate characteristic mitochondrial defects of FRDA post-mitotic neurons and cardiomyocytes. (A, B) Quantification of flow cytometry analysis of normal and FRDA neurons (A) or normal and FRDA CMCs (B) expressing an FXN-RF shRNA and stained with MitoSOX. (C, D) Analysis of the mitochondrial oxygen consumption rate in normal and FRDA neurons (C) or normal and FRDA CMCs (D) expressing an FXN-RF shRNA. […] (C, D) Analysis of the mitochondrial oxygen consumption rate in FRDA neurons (C) or FRDA CMCs (D) treated with a small molecule ROCK1/2 inhibitor. (E, F) Immunoblot analysis showing levels of mitochondrial proteins ACO and ISCU in FRDA neurons (E) or FRDA CMCs (F) treated with fasudil (1 μM), KD025 (1 μM), or ripasudil (0.5 μM). […] We next asked whether FXN-RF inhibition could ameliorate two characteristic mitochondrial defects of FRDA neurons and cardiomyocytes: increased levels of reactive oxygen species (ROS) and decreased oxygen consumption. In the first set of experiments, FRDA neurons and cardiomyocytes expressing a protein kinase FXN-RF shRNA were stained with MitoSOX (an indicator of mitochondrial superoxide levels and mitochondrial ROS production) followed by flow cytometry analysis. As expected. FRDA neurons and cardiomyocytes had increased levels of mitochondrial ROS production compared to normal neurons and cardiomyocytes (FIGS. 3A, B). […] In the second set of experiments, we measured mitochondrial oxygen consumption rate, which is related to ATP production, using an Agilent Seahorse XF Analyzer. As expected, mitochondrial oxygen consumption rate in FRDA neurons and cardiomyocytes was ˜60% of the level observed in normal neurons and cardiomyocytes (FIGS. 3C, D).

[5] = tested on: FRDA cardiomyocytes; experiment: Mitochondrial oxygen consumption rate (Agilent Seahorse XF Analyzer) in FRDA cardiomyocytes; assay type: cell-based, human; conditions: small molecule ROCK1/2 inhibitor
Text: as §1

[6] = tested on: ROCK1/2; conditions: literature; cited from earlier work
[7] = tested on: ROCK1; experiment: qRT-PCR analysis monitoring ROCK1 expression (shRNA knockdown) in FRDA (GM23404) iPSCs; assay type: cell-based, human; conditions: FRDA (GM23404) iPSCs expressing the shRNA
Text: (§2) FIGS. 4A-E. Identification of ROCK2 as a protein kinase that mediates repression of the mutant FXN gene. (A) qRT-PCR analysis monitoring ROCK1 and ROCK2 expression in FRDA (GM23404) iPSCs expressing the two ROCK1 shRNAs used in the experiments shown in FIGS. 1-3 (hereafter called ROCK1-1 and ROCK1-2). […] (B) qRT-PCR analysis monitoring knockdown efficiencies of selective ROCK1 (ROCK1-3) and ROCK2 shRNAs.
(§3) Of the 8 new FXN-RFs that we identified, we are particularly enthusiastic about ROCK1, a serine-threonine kinase and major effector of the small GTPase RhoA (Schofield and Bernard, Crit Rev Biochem Mol Biol, 2013, 48 (4): 301-316. ROCK1 phosphory lates a variety of substrates, some of which can affect cell signaling pathways, such as PI3K/AKT (Ruth et al., J Invest Dermatol, 2006, 126 (4): 862-868), and transcription factors, such as NF-kB (Shimizu et al., Mol Hum Reprod, 2007, 13 (3): 181-187) and Runx2 (Huang et al., Exp Ther Med, 2018, 15 (5): 4457-4464). In addition to ROCK1, mammalian cells express another ROCK isoform encoded by a distinct gene, ROCK2. […] ROCK1 and ROCK2 share ˜65% overall amino acid identity and 92% identity in their kinase domains, with 100% identity within their ATP-binding pockets (Nakagawa et al., FEBS Lett, 1996, 392 (2): 189-193; Takahashi et al., Genomics, 1999, 55 (2): 235-237). […] Thus, both ROCK1 and ROCK2 are protein kinase FXN-RFs.

[8] = tested on: ROCK2; experiment: qRT-PCR analysis monitoring ROCK2 expression (shRNA knockdown) in FRDA (GM23404) iPSCs; assay type: cell-based, human; conditions: FRDA (GM23404) iPSCs expressing the shRNA
Text: as §2, §3

## CC(C)NC(=O)COc1cccc(-c2nc(Nc3ccc4[nH]ncc4c3)c3ccccc3n2)c1 [KD025]
[1]
  FXN transcript levels (RNA-seq): Upregulation of the mutant FXN gene
[2]
  levels of ACO2: increased levels of ACO2 and ISCU comparable to that observed in normal neurons and cardiomyocytes
  levels of ISCU: increased levels of ACO2 and ISCU comparable to that observed in normal neurons and cardiomyocytes
[3]
  levels of ACO2: increased levels of ACO2 and ISCU comparable to that observed in normal neurons and cardiomyocytes
  levels of ISCU: increased levels of ACO2 and ISCU comparable to that observed in normal neurons and cardiomyocytes

## C[C@@H](N)[C@H]1CC[C@H](C(=O)Nc2ccncc2)CC1.Cl.Cl [Y27632, (+)-(R)-trans-4-(1-aminoethyl)-N-(4-pyridyl)cyclohexanecarboxamide dihydrochloride]
[4]
  mitochondrial oxygen consumption rate: increased mitochondrial oxygen consumption rate
[5]
  mitochondrial oxygen consumption rate: increased mitochondrial oxygen consumption rate

## O=S(=O)(c1cccc2cnccc12)N1CCCNCC1 [fasudil, 1-(5-isoquinolinesulfonyl)-homopiperazine]
[1]
  FXN transcript levels (RNA-seq): Upregulation of the mutant FXN gene
[4]
  mitochondrial oxygen consumption rate: increased mitochondrial oxygen consumption rate
[5]
  mitochondrial oxygen consumption rate: increased mitochondrial oxygen consumption rate
[2]
  levels of ACO2: increased levels of ACO2 and ISCU comparable to that observed in normal neurons and cardiomyocytes
  levels of ISCU: increased levels of ACO2 and ISCU comparable to that observed in normal neurons and cardiomyocytes
[3]
  levels of ACO2: increased levels of ACO2 and ISCU comparable to that observed in normal neurons and cardiomyocytes
  levels of ISCU: increased levels of ACO2 and ISCU comparable to that observed in normal neurons and cardiomyocytes
[6]
  oral activity: orally active
  tolerability / adverse effects: well tolerated without adverse effects

## C[C@H]1CNCCCN1S(=O)(=O)c1cccc2cncc(F)c12 [ripasudil, 4-fluoro-5-[[(2S)-2-methyl-1,4-diazepan-1-yl]sulfonyl]isoquinoline]
[4]
  mitochondrial oxygen consumption rate: increased mitochondrial oxygen consumption rate
[5]
  mitochondrial oxygen consumption rate: increased mitochondrial oxygen consumption rate
[2]
  levels of ACO2: increased levels of ACO2 and ISCU comparable to that observed in normal neurons and cardiomyocytes
  levels of ISCU: increased levels of ACO2 and ISCU comparable to that observed in normal neurons and cardiomyocytes
[3]
  levels of ACO2: increased levels of ACO2 and ISCU comparable to that observed in normal neurons and cardiomyocytes
  levels of ISCU: increased levels of ACO2 and ISCU comparable to that observed in normal neurons and cardiomyocytes
[6]
  oral activity: orally active
  tolerability / adverse effects: well tolerated without adverse effects

## ROCK1-1: ROCK1 shRNA (1), SEQ ID NO: 11; knocks down both ROCK1 and ROCK2 (CCGGCGGGTTGTTCAGATTGAGAAACTCGAGTTTCTCAATCTGAACAACCCGTTTTTG)
[7]
  ROCK1 expression (knockdown): knocked down both ROCK1 and ROCK2
[8]
  ROCK2 expression (knockdown): knocked down both ROCK1 and ROCK2

## ROCK1-2: ROCK1 shRNA (2), SEQ ID NO: 12; knocks down both ROCK1 and ROCK2 (CCGGGCATTCCAAGATGATCGTTATCTCGAGATAACGATCATCTTGGAATGCTTTTTG)
[7]
  ROCK1 expression (knockdown): knocked down both ROCK1 and ROCK2
[8]
  ROCK2 expression (knockdown): knocked down both ROCK1 and ROCK2

## ROCK1-3: selective ROCK1 shRNA (3), SEQ ID NO: 13 (CCGGGCACCAGTTGTACCCGATTTACTCGAGTAAATCGGGTACAACTGGTGCTTTTTG)
[7]
  ROCK1 expression (knockdown): knocked down ROCK1
[8]
  ROCK2 expression (knockdown): knocked down ROCK1 but not ROCK2

## ROCK2 shRNA: selective ROCK2 shRNA, SEQ ID NO: 14 (CCGGGCACCAGTTGTACCCGATTTACTCGAGTAAATCGGGTACAACTGGTGCTTTTTG)
[7]
  ROCK1 expression (knockdown): knocked down ROCK2 but not ROCK1
[8]
  ROCK2 expression (knockdown): knocked down ROCK2
